In publication PMC6950057, “Toxicity, Pharmacokinetics, and Gut Microbiome of Oral Administration of Sesterterpene MHO7 Derived from a Marine Fungus” (Marine Drugs, 2019):
Like-named read-outs stand apart in the source and are kept apart here.

What was measured:
[1] = Stability in simulated intestinal fluid (SIF); assay type: in vitro ADME; settings: for percentage concentration remaining in SIF: at 8 h
Experimental: SGF was prepared with modifications according to Lee et al. (2012) by mixing 100 mL of distilled water with a pH value set to 2.0 with hydrochloric acid and 1 g pepsin solution (800–2000 U/mg of protein). SIF was produced according to USP specifications (Test Solutions, United States Pharmacopeia 35, NF 30, 2012). Monobasic potassium phosphate (0.68 g) was dissolved in 25 mL of water. Then, 7.7 mL of 0.2 M NaOH was added to adjust the pH to 6.8. To this, 1 g of pancreatin was added and shaken gently until dissolved and the volume adjusted to 100 mL with water. Pancreatin was added after adjusting the pH of the solution to 6.8 to avoid precipitation of the enzyme.
Aliquots (199 µL) of SGF and SIF were placed in 1.5 mL microcentrifuge tubes and incubated at 37 °C for 10 min in a water bath, respectively. Different concentrations of MHO7 (1 µL) were added to each of the above microcentrifuge tubes to start the reaction with being incubated at 37 °C at 250 rpm in a shaking water bath. The reaction was stopped by adding ice ACN (800 µL) to each tube at intervals of 0, 0.5, 1, 2, 4, 6, and 8 h. The samples were vortexed for 15 min and centrifuged at 4 °C and 15,000 rpm for 15 min. After centrifuging the supernatant layer was taken directly for LC-MS analysis. Each experiment was carried out in triplicate, and average values were plotted. QC samples were prepared in the same way of inactivating pepsin in SGF incubation system at the concentrations of 1, 0.1 and 0.01 μM·L^−1 for HQC, MQC and LQC, respectively.

[2] = Tissue distribution after single oral dose; assay type: in vivo, mice; settings: oral 500 mg·kg^−1, female mice; for concentration at 1 h / concentration at 4 h / concentration at 8 h / concentration at 12 h / concentration at 20 h / concentration at 30 h: KM, mouse
Experimental: The animals and treatment methods were the same as in the pharmacokinetic studies. Afterwards, the biological samples (n = 6 per group) were collected at 1, 4, 8, 12, 20, and 30 h, and the tissues including heart, liver, spleen, lung, kidney, stomach, intestine, brain, muscle (hind limb), fat (white adipose tissue ), reproductive organs (uterus, fallopian tube and ovary) stomach and its contents, and intestine and its contents, and the blood samples were simultaneously collected. All the tissues were washed with cold physiological saline (4 °C), excess fluid blotted, accurately weighed, and subjected to the processing as described in the sample preparation. QC samples and standard curve series solutions were prepared in the same way of blank gastrointestinal contents and livers, respectively. The concentrations of HQC, MQC, and LQC in mice tissues were 10, 1, and 0.1 μM·L^−1, respectively, and the concentrations of standard curve series solutions were 50, 25, 10, 5, 2.5, 1, 0.5, 0.25, 0.1, and 0.005 μM·L^−1 for high and low concentrations of standard curves.

CC(C)=C/C=C/[C@H](C)[C@H]1CC[C@]2(C)C[C@@H]3C(C)=CC(=O)[C@H]3/C(C=O)=C\C[C@@H]12 [MHO7, 6-epi-ophiobolin G]
percentage concentration remaining in SIF ([1]; MHO7 added at 0.05 mM·L^−1, 37 °C): 94.83 ± 1.14% | percentage concentration remaining in SIF ([1]; initial addition 0.5 mM·L^−1, 37 °C): 89.74 ± 0.86% | stability in SIF ([1]; under the concentration of 5 mM·L^−1): stable | Concentration in Brain ([2]; 1 h): 0.95 ± 0.80 µg/g | Concentration in Liver ([2]; 1 h): 3.01 ± 1.53 µg/g | Concentration in Reproductive organs ([2]; 1 h): 0.88 ± 0.68 µg/g | Concentration in Fat ([2]; 4 h): 5.20 ± 3.47 µg/g | Concentration in Liver ([2]; 4 h): 1.64 ± 1.09 µg/g | Concentration in Reproductive organs ([2]; 4 h): 2.29 ± 1.80 µg/g | Concentration in Fat ([2]; 8 h): 11.15 ± 8.87 µg/g | Concentration in Kidney ([2]; 8 h): 1.66 ± 0.74 µg/g | Concentration in Reproductive organs ([2]; 8 h): 23.90 ± 11.33 µg/g | Concentration in Kidney ([2]; 12 h): 8.16 ± 6.23 µg/g | Concentration in Lung ([2]; 12 h): 2.34 ± 1.91 µg/g | Concentration in Reproductive organs ([2]; 12 h): 13.69 ± 10.29 µg/g | Concentration in Reproductive organs ([2]; 20 h): 1.46 ± 1.23 µg/g | Concentration in Reproductive organs ([2]; 30 h): 0.36 ± 0.46 µg/g | concentration at 1 h ([2]; brain, 1 h, read-out: Concentration in Brain): 950 ± 800 ng/g | concentration at 4 h ([2]; brain, 4 h, read-out: Concentration in Brain): 480 ± 330 ng/g | concentration at 8 h ([2]; brain, 8 h, read-out: Concentration in Brain): 500 ± 150 ng/g | concentration at 12 h ([2]; brain, 12 h, read-out: Concentration in Brain): 180 ± 110 ng/g | concentration at 20 h ([2]; brain, 20 h, read-out: Concentration in Brain): 100 ± 50 ng/g | concentration at 30 h ([2]; brain, 30 h, read-out: Concentration in Brain): 10 ± 4 ng/g | concentration at 1 h ([2]; fat (white adipose tissue), 1 h, read-out: Concentration in Fat): 740 ± 410 ng/g | concentration at 4 h ([2]; fat (white adipose tissue), 4 h, read-out: Concentration in Fat): 5200 ± 3470 ng/g | concentration at 8 h ([2]; fat (white adipose tissue), 8 h, read-out: Concentration in Fat): 11200 ± 8870 ng/g | concentration at 12 h ([2]; fat (white adipose tissue), 12 h, read-out: Concentration in Fat): 740 ± 700 ng/g | concentration at 20 h ([2]; fat (white adipose tissue), 20 h, read-out: Concentration in Fat): 340 ± 250 ng/g | concentration at 30 h ([2]; fat (white adipose tissue), 30 h, read-out: Concentration in Fat): 180 ± 160 ng/g | concentration at 1 h ([2]; heart, 1 h, read-out: Concentration in Heart): 60 ± 37 ng/g | concentration at 4 h ([2]; heart, 4 h, read-out: Concentration in Heart): 850 ± 510 ng/g | concentration at 8 h ([2]; heart, 8 h, read-out: Concentration in Heart): 670 ± 480 ng/g | concentration at 12 h ([2]; heart, 12 h, read-out: Concentration in Heart): 640 ± 300 ng/g | concentration at 20 h ([2]; heart, 20 h, read-out: Concentration in Heart): 40 ± 20 ng/g | concentration at 30 h ([2]; heart, 30 h, read-out: Concentration in Heart): 80 ± 10 ng/g | concentration at 1 h ([2]; kidney, 1 h, read-out: Concentration in Kidney): 110 ± 60 ng/g | concentration at 4 h ([2]; kidney, 4 h, read-out: Concentration in Kidney): 1630 ± 920 ng/g | concentration at 8 h ([2]; kidney, 8 h, read-out: Concentration in Kidney): 1660 ± 740 ng/g | concentration at 12 h ([2]; kidney, 12 h, read-out: Concentration in Kidney): 8160 ± 6230 ng/g | concentration at 20 h ([2]; kidney, 20 h, read-out: Concentration in Kidney): 390 ± 90 ng/g | concentration at 30 h ([2]; kidney, 30 h, read-out: Concentration in Kidney): 70 ± 10 ng/g | concentration at 1 h ([2]; liver, 1 h, read-out: Concentration in Liver): 3010 ± 1530 ng/g | concentration at 4 h ([2]; liver, 4 h, read-out: Concentration in Liver): 1640 ± 1090 ng/g | concentration at 8 h ([2]; liver, 8 h, read-out: Concentration in Liver): 180 ± 220 ng/g | concentration at 12 h ([2]; liver, 12 h, read-out: Concentration in Liver): 490 ± 370 ng/g | concentration at 20 h ([2]; liver, 20 h, read-out: Concentration in Liver): 60 ± 50 ng/g | concentration at 30 h ([2]; liver, 30 h, read-out: Concentration in Liver): 10 ± 10 ng/g
